{
  "source": "patent US20110015080A1",
  "about": "“Solution-based methods for RNA expression profiling” (MASSACHUSETTS INSTITUTE OF TECHNOLOGY, priority 2005, published 2011)",
  "system": "HL60 (human promyelocytic leukemia) cells",
  "assay": "LMA-FlexMAP bead-based gene expression signature analysis of total RNA from HL60 cells treated with tretinoin or DMSO (ninety transcripts); for FlexMap signal, transcript NM 000875 (LUA#55): test concentration or dose not given here",
  "key": {"[1]": {"settings": "Experiment 2, HL60 cells, Tretinoin-treated, replicate columns"}, "[2]": {"settings": "Table 6B Experiment 1, tretinoin-treated HL60 samples, one column per replicate"}},
  "note": "Where “and” joins values, the source holds several entries; their conditions need not be identical. Identical values can stand only once.",
  "data": [
    {"smiles": "CC1=C(/C=C/C(C)=C/C=C/C(C)=C/C(=O)O)C(C)(C)CCC1", "note": "[tretinoin, all-trans-retinoic acid]", "values": [
      {"measurement": "FlexMap signal, transcript NM_000698 (LUA#14)", "setting": "[1]", "value": "1787 and 1685 and 64.5 and 1902 and 539 and 1934.5 and 1914.5 and 1773 and 1769 and 1871.5"},
      {"measurement": "FlexMap signal, transcript NM_000875 (LUA#55)", "setting": "[1]", "value": "89 and 104 and 28.5 and 81 and 36 and 79 and 80 and 85 and 90 and 87.5"},
      {"measurement": "FlexMap signal, transcript NM_000962 (LUA#7)", "setting": "[1]", "value": "873 and 822.5 and 65 and 900 and 253 and 845 and 904.5 and 846 (2×) and 930"},
      {"measurement": "FlexMap signal, transcript NM_001974 (LUA#11)", "setting": "[1]", "value": "494 and 340.5 and 30 and 516.5 and 92.5 and 533 and 515 and 493 and 470 and 539"},
      {"measurement": "FlexMap signal, transcript NM_002358 (LUA#53)", "setting": "[1]", "value": "109 (2×) and 94 and 33.5 and 103 (2×) and 39 and 96 and 97 and 119"},
      {"measurement": "FlexMap signal, transcript NM_003825 (LUA#8)", "setting": "[1]", "value": "721 and 689.5 and 102 and 772 and 220 and 800 and 733 and 738 and 727 and 764"},
      {"measurement": "FlexMap signal, transcript NM_004514 (LUA#46)", "setting": "[1]", "value": "399 and 424.5 and 25 and 469 and 99 and 428 and 445 and 422 and 420.5 and 460"},
      {"measurement": "FlexMap signal, transcript NM_004631 (LUA#52)", "setting": "[1]", "value": "399 (2×) and 397 and 38.5 and 391 and 97 and 396 and 399.5 and 401.5 and 424"},
      {"measurement": "FlexMap signal, transcript NM_004782 (LUA#4)", "setting": "[1]", "value": "1036.5 and 932 and 45 and 979.5 and 253 and 1005 and 1030 and 914 and 929 and 1044"},
      {"measurement": "FlexMap signal, transcript NM_005736 (LUA#1)", "setting": "[1]", "value": "384.5 and 298.5 and 36.5 and 390 and 90.5 and 408 and 411 and 385 and 392 and 414.5"},
      {"measurement": "FlexMap signal, transcript NM_006457 (LUA#13)", "setting": "[1]", "value": "131 (2×) and 121 and 43 and 115.5 (2×) and 65 and 118 and 120 and 117"},
      {"measurement": "FlexMap signal, transcript NM_006773 (LUA#47)", "setting": "[1]", "value": "284 and 354.5 and 28 and 270 and 68 and 273 and 283 and 272 and 279 and 305"},
      {"measurement": "FlexMap signal, transcript NM_006948 (LUA#51)", "setting": "[1]", "value": "980 and 887 and 51 and 974 and 248 and 1014 and 1006 and 963.5 and 958.5 and 1024.5"},
      {"measurement": "FlexMap signal, transcript NM_007331 (LUA#50)", "setting": "[1]", "value": "102 and 115 (2×) and 24 and 47 and 95.5 and 96 and 97.5 and 94.5 and 111.5"},
      {"measurement": "FlexMap signal, transcript NM_013402 (LUA#54)", "setting": "[1]", "value": "89 and 83 and 30 and 82 and 46 and 90.5 and 95.5 and 85 and 84.5 and 97"},
      {"measurement": "FlexMap signal, transcript NM_014288 (LUA#48)", "setting": "[1]", "value": "63.5 and 55 and 22 and 52 and 33 and 60 and 57 (3×) and 65"},
      {"measurement": "FlexMap signal, transcript NM_014962 (LUA#5)", "setting": "[1]", "value": "691 and 618 and 39 and 595.5 and 160 and 670.5 and 705 and 677.5 and 678 and 710"},
      {"measurement": "FlexMap signal, transcript NM_016061 (LUA#9)", "setting": "[1]", "value": "450 and 440 and 48 and 458 and 121 and 470.5 and 464 and 468 and 459 and 503.5"},
      {"measurement": "FlexMap signal, transcript NM_017440 (LUA#49)", "setting": "[1]", "value": "91 and 29 and 88 and 42 and 78 and 97 and 87.5 and 84 and 86.5"},
      {"measurement": "FlexMap signal, transcript NM_018217 (LUA#3)", "setting": "[1]", "value": "980 and 922 and 48 and 935 and 258 and 992 and 1053.5 and 947 and 966 and 1022.5"},
      {"measurement": "FlexMap signal, transcript NM_032571 (LUA#15)", "setting": "[1]", "value": "228 (2×) and 244 (2×) and 22.5 and 58.5 and 234 and 208 and 205 and 239"},
      {"measurement": "FlexMap signal, transcript NM_173823 (LUA#6)", "setting": "[1]", "value": "760 and 592 and 36 and 736 and 182.5 and 758 and 734.5 and 658.5 and 681 and 816"},
      {"measurement": "FlexMap signal of transcript NM_014288 (LUA#48)", "setting": "Experiment 3, tretinoin-treated samples, one column per sample", "value": "45 and 48 and 30 and 25 and 30.5 and 39 and 43 and 33"},
      {"measurement": "NM_000070 (FlexMap ID LUA#2) signal", "setting": "[2]", "value": "329.5 and 386 and 269.5 and 370 and 104.5 and 354 and 372 and 159 and 336 and 318"},
      {"measurement": "NM_000153 (FlexMap ID LUA#10) signal", "setting": "[2]", "value": "357.5 and 432 and 324 and 419.5 and 120 and 384 and 408 and 170 and 374 and 377.5"},
      {"measurement": "NM_000632 (FlexMap ID LUA#12) signal", "setting": "[2]", "value": "323.5 and 222 and 292 and 78 and 307 and 277 and 114 and 275.5 and 251"},
      {"measurement": "NM_000698 (FlexMap ID LUA#14) signal", "setting": "[2]", "value": "1562 and 1779 and 1332.5 and 1743 and 503 and 1688 and 1686.5 and 787 and 1606 and 1552.5"},
      {"measurement": "NM_000875 (FlexMap ID LUA#55) signal", "setting": "[2]", "value": "63 and 68 and 53 and 62 (2×) and 36 and 65 and 48 and 74 and 54"},
      {"measurement": "NM_000962 (FlexMap ID LUA#7) signal", "setting": "[2]", "value": "754 and 894 and 663 and 823 and 294 and 793.5 and 807 and 398 and 772 and 764"},
      {"measurement": "NM_001974 (FlexMap ID LUA#11) signal", "setting": "[2]", "value": "403 and 466 and 288 and 435.5 and 95 and 414 and 430 and 141 and 420.5 and 396"},
      {"measurement": "NM_002358 (FlexMap ID LUA#53) signal", "setting": "[2]", "value": "99 (2×) and 113 and 72 and 98 (2×) and 53 and 96 and 58 and 85"},
      {"measurement": "NM_003825 (FlexMap ID LUA#8) signal", "setting": "[2]", "value": "557 and 658 and 476.5 and 630.5 and 256 and 580 and 609 and 318 and 584 and 550"},
      {"measurement": "NM_004514 (FlexMap ID LUA#46) signal", "setting": "[2]", "value": "312.5 and 356 and 262 and 320 and 96 and 306 and 313 and 144.5 and 302 and 286"},
      {"measurement": "NM_004631 (FlexMap ID LUA#52) signal", "setting": "[2]", "value": "304 and 352 and 238 and 334 and 103 and 331 and 310.5 and 135.5 and 326 and 289.5"},
      {"measurement": "NM_004782 (FlexMap ID LUA#4) signal", "setting": "[2]", "value": "790.5 and 907 and 635 and 855 (2×) and 232 and 870 and 812.5 and 341 and 750"},
      {"measurement": "NM_005736 (FlexMap ID LUA#1) signal", "setting": "[2]", "value": "308 and 336 and 319 and 351 and 89 and 329 and 319.5 and 138.5 and 309 and 279"},
      {"measurement": "NM_006457 (FlexMap ID LUA#13) signal", "setting": "[2]", "value": "144 and 135 (2×) and 113 and 78 and 123 and 136 and 90 and 151.5 and 132"},
      {"measurement": "NM_006773 (FlexMap ID LUA#47) signal", "setting": "[2]", "value": "213 (2×) and 257 and 139 and 56.5 and 216 and 219 and 79.5 and 235 and 174"},
      {"measurement": "NM_006948 (FlexMap ID LUA#51) signal", "setting": "[2]", "value": "742 and 840.5 and 592.5 and 791.5 and 224 and 773.5 and 795 and 325 and 762 and 716.5"},
      {"measurement": "NM_007331 (FlexMap ID LUA#50) signal", "setting": "[2]", "value": "85.5 and 97 and 70 and 81 and 42 and 96 and 87 and 53 and 91 and 80"},
      {"measurement": "NM_013402 (FlexMap ID LUA#54) signal", "setting": "[2]", "value": "72 (2×) and 71 and 62 and 75 (2×) and 43 and 75.5 and 48.5 and 71.5"},
      {"measurement": "NM_014288 (FlexMap ID LUA#48) signal", "setting": "[2]", "value": "64 and 62 and 55 and 61 and 45 and 60 (2×) and 56 and 41.5 and 59"},
      {"measurement": "NM_014962 (FlexMap ID LUA#5) signal", "setting": "[2]", "value": "537 and 575.5 and 414.5 and 556 and 171.5 and 552.5 and 567 and 232 and 576.5 and 516.5"},
      {"measurement": "NM_016061 (FlexMap ID LUA#9) signal", "setting": "[2]", "value": "362.5 and 422 and 297 and 401 and 128 and 385 and 382 and 173 and 357.5 and 357"},
      {"measurement": "NM_017440 (FlexMap ID LUA#49) signal", "setting": "[2]", "value": "59 and 66 and 55 and 68 (2×) and 40 and 67 and 48.5 and 66.5 and 62"},
      {"measurement": "NM_018217 (FlexMap ID LUA#3) signal", "setting": "[2]", "value": "747 and 886 and 659.5 and 824 and 225.5 and 823 and 800 and 343 and 785 and 727"},
      {"measurement": "NM_032571 (FlexMap ID LUA#15) signal", "setting": "[2]", "value": "144 and 188 and 125 and 161 and 60 and 169 and 164.5 and 81 and 172.5 and 146"},
      {"measurement": "NM_173823 (FlexMap ID LUA#6) signal", "setting": "[2]", "value": "591.5 and 718 and 482.5 and 654 and 186.5 and 675 and 646 and 291 and 604.5 and 573"}
    ]}
  ]
}
